Assay results from patent publication US9271978B2 (Zenith Epigenetics Corp., priority 2012, dated 2016).

Legend:
Parameters in all cases: key: Active: Compounds with an IC50 value less than 30 μM were deemed to be active.; Not Active: Compounds with an IC50 value less than 30 μM were deemed to be active
hIL-6 mRNA = experiment: Inhibition of hIL-6 mRNA transcription in U937 cells; format: cell-based, human; conditions: LPS stimulation, active = IC50 <30 μM
Procedure: In this example, hIL-6 mRNA in tissue culture cells was quantitated to measure the transcriptional inhibition of hIL-6 when treated with a compound of the present disclosure.
A human leukemic monocyte lymphoma cell line (U937) was plated (3.2×10^4 cells per well) in a 96-well plate in […] RPMI-1640 containing 10% FBS and penicillin/streptomycin, and differentiated into macrophages for 3 days in 60 ng/mL PMA ([…]) at 37° C. in 5% CO2 prior to the addition of the compound of interest. The cells were pretreated for 1 h with the test compound prior to stimulation with 1 ug/mL lipopolysaccharide from Escherichia coli. The cells were incubated at 37° C. for 3 h before the cells were harvested. At time of harvest, the spent media was removed from the cells and the cells were rinsed in […] PBS. Cell lysis solution (70 μL) was added the cells in each well and incubated for 5-10 min at room temperature, to allow for complete cell lysis and detachment. mRNA was then prepared using the “mRNA Catcher PLUS plate” (Invitrogen), according to the protocol supplied. After the last wash, as much wash buffer as possible was aspirated without allowing the wells to dry. Elution buffer (E3, 70 μL) was then added to each well. mRNA was then eluted by incubating the mRNA Catcher PLUS plate with Elution Buffer for 5 min at 68° C. and then immediately placing the plate on ice.
The eluted mRNA isolated was then used in a one-step quantitative real-time PCR reaction, using components of the Ultra Sense Kit together with Applied Biosystems primer-probe mixes. Real-time PCR data was analyzed, normalizing the Ct values for hIL-6 to an internal control, prior to determining the fold induction of each unknown sample, relative to the control.

[1] = molecular target: T1, second bromodomain of Brd2 (BRD2(2)) (Homo sapiens, UniProt P25440); experiment: Inhibition of tetra-acetylated histone H4 binding to Brd2 bromodomain 2 (TR-FRET); conditions: tetra-acetylated histone H4 peptide, active = IC50 <30 μM
T1 construct: made in house; host or cells: E. coli BL21 (DE3)
T1 sequence (P25440 344-453 limits assumed): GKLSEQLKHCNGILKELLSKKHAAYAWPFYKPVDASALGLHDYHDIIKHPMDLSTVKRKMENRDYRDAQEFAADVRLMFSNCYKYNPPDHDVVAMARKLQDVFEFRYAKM
Procedure: Proteins were cloned and overexpressed with a N-terminal 6×His tag, then purified by nickel affinity followed by size exclusion chromatography. Briefly, E. coli BL21 (DE3) cells were transformed with a recombinant expression vector encoding N-terminally Nickel affinity tagged bromodomains from Brd2, Brd3, Brd4. Cell cultures were incubated at 37° C. with shaking to the appropriate density and induced overnight with IPTG. The supernatant of lysed cells was loaded onto Ni-IDA column for purification. Eluted protein is pooled, concentrated and further purified by size exclusion chromatography. Fractions representing monomeric protein were pooled, concentrated, aliquoted, and frozen at −80° C. for use in subsequent experiments.
Binding of tetra-acetylated histone H4 and BET bromodomains was confirmed by a Time Resolved Fluorescence Resonance Energy Transfer (TR-FRET) method. N-terminally His-tagged bromodomains (200 nM) and biotinylated tetra-acetylated histone H4 peptide (25-50 nM, Millipore) were incubated in the presence of Europium Cryptate-labeled streptavidin (Cisbio Cat. #610SAKLB) and XL665-labeled monoclonal anti-His antibody (Cisbio Cat. #61HISXLB) in a white 96 well microtiter plate (Greiner). For inhibition assays, serially diluted test compound was added to these reactions in a 0.2% final concentration of DMSO. Final buffer concentrations were 30 mM HEPES pH 7.4, 30 mM NaCl, 0.3 mM CHAPS, 20 mM phosphate pH 7.0, 320 mM KF, 0.08% BSA). After a 2-h incubation at room temperature, the fluorescence by FRET was measured at 665 and 620 nm by a SynergyH4 plate reader (Biotek). Illustrative results with the first bromodomain of Brd4 and the second bromodomain of Brd2 are shown below. The binding inhibitory activity was shown by a decrease in 665 nm fluorescence relative to 620 nm. IC50 values were determined from a dose response curve.

[2] = molecular target: T2, Brd4 bromodomain 1 (BRD4(1)) (Homo sapiens, UniProt O60885); experiment: Inhibition of tetra-acetylated histone H4 binding to Brd4 bromodomain 1 (TR-FRET); conditions: tetra-acetylated histone H4 peptide, active = IC50 <30 μM
T2 construct: Illustrative results with the first bromodomain of Brd4; made in house; host or cells: E. coli BL21 (DE3)
In short: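 N-terminally His-tagged bromodomains (200 nM), expressed in E. coli, were incubated with biotinylated tetra-acetylated histone H4 peptide (25-50 nM), Eu-cryptate streptavidin and XL665 anti-His antibody in HEPES pH 7.4 buffer with KF, 0.2% DMSO, 2 h at room temperature. Inhibition read as decreased 665/620 nm TR-FRET; IC50 from dose-response curves.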

[3] = system: human AML MV-4-11 (CRL-9591) cells; experiment: Inhibition of cell proliferation in MV4-11 cells; format: cell-based; conditions: human AML MV-4-11 cells, 72 h; active = IC50 <30 μM
Procedure: MV4-11 cells: 96-well plates were seeded with 5×10^4 cells per well of exponentially growing human AML MV-4-11 (CRL-9591) cells and immediately treated with two-fold dilutions of test compounds, ranging from 30 μM to 0.2 μM. Triplicate wells were used for each concentration, as well as a media only and three DMSO control wells. The cells and compounds were incubated at 37° C., 5% CO2 for 72 h before adding 20 μL of the CellTiter Aqueous One Solution (Promega) to each well and incubating at 37° C., 5% CO2 for an additional 3-4 h. The absorbance was taken at 490 nm in a spectrophotometer and the percentage of proliferation relative to DMSO-treated cells was calculated after correction from the blank well. IC50 were calculated using the GraphPad Prism software.

SMILES: Cc1noc(C)c1-c1ccc(=O)n(C(C)c2ccccc2C(F)(F)F)c1 (centres unmarked) [Example 38, 5-(3,5-Dimethylisoxazol-4-yl)-1-(1-(2-(trifluoromethyl)phenyl)ethyl)pyridin-2(1H)-one]
- IL-6 activity (IC50 <30 μM) (hIL-6 mRNA): Active
- FRET activity (IC50 <30 μM) BRD2(2) [1]: Active
- FRET activity (IC50 <30 μM) BRD4(1) [2]: Active

SMILES: Cc1noc(C)c1-c1ccc(=O)n(Cc2ccccc2OC(F)(F)F)n1 [Example 39, 6-(3,5-Dimethylisoxazol-4-yl)-2-(2-(trifluoromethoxy)benzyl)pyridazin-3(2H)-one]
- IL-6 activity (IC50 <30 μM) (hIL-6 mRNA): Active
- FRET activity (IC50 <30 μM) BRD2(2) [1]: Active
- FRET activity (IC50 <30 μM) BRD4(1) [2]: Active

SMILES: Cc1noc(C)c1-c1ccc(=O)n(Cc2cccnc2)c1 [Example 44, 5-(3,5-Dimethylisoxazol-4-yl)-1-(pyridin-3-ylmethyl)pyridin-2(1H)-one]
- IL-6 activity (IC50 <30 μM) (hIL-6 mRNA): Not Active
- FRET activity (IC50 <30 μM) BRD2(2) [1]: Active
- FRET activity (IC50 <30 μM) BRD4(1) [2]: Active

SMILES: Cc1cccc(Cn2cc(-c3c(C)noc3C)ccc2=O)n1 [Example 46, 5-(3,5-Dimethylisoxazol-4-yl)-1-((6-methylpyridin-2-yl)methyl)pyridin-2(1H)-one]
- IL-6 activity (IC50 <30 μM) (hIL-6 mRNA): Active
- FRET activity (IC50 <30 μM) BRD2(2) [1]: Active
- FRET activity (IC50 <30 μM) BRD4(1) [2]: Active

SMILES: CNC(=O)c1ccc(Cn2nc(-c3c(C)noc3C)ccc2=O)cc1 [Example 89, 4-((3-(3,5-Dimethylisoxazol-4-yl)-6-oxopyridazin-1(6H)-yl)methyl)-N-methylbenzamide]
- IL-6 activity (IC50 <30 μM) (hIL-6 mRNA): Not Active
- FRET activity (IC50 <30 μM) BRD2(2) [1]: Active
- FRET activity (IC50 <30 μM) BRD4(1) [2]: Active

SMILES: Cc1noc(C)c1-c1ccc(=O)n(Cc2cccc3cccnc23)n1 [Example 102, 6-(3,5-Dimethylisoxazol-4-yl)-2-(quinolin-8-ylmethyl)pyridazin-3(2H)-one]
- IL-6 activity (IC50 <30 μM) (hIL-6 mRNA): Active
- FRET activity (IC50 <30 μM) BRD2(2) [1]: Active
- FRET activity (IC50 <30 μM) BRD4(1) [2]: Active

SMILES: Cc1noc(C)c1-c1ccc(=O)n(C(C)c2ccccc2Cl)c1 (centres unmarked) [Example 103, 1-(1-(2-Chlorophenyl)ethyl)-5-(3,5-dimethylisoxazol-4-yl)pyridin-2(1H)-one]
- IL-6 activity (IC50 <30 μM) (hIL-6 mRNA): Not Active
- FRET activity (IC50 <30 μM) BRD2(2) [1]: Active
- FRET activity (IC50 <30 μM) BRD4(1) [2]: Active

SMILES: Cc1noc(C)c1-c1ccc(=O)n(Cc2ccncc2)c1 [Example 129, 5-(3,5-Dimethylisoxazol-4-yl)-1-(pyridin-4-ylmethyl)pyridin-2(1H)-one]
- IL-6 activity (IC50 <30 μM) (hIL-6 mRNA): Active
- FRET activity (IC50 <30 μM) BRD2(2) [1]: Active
- FRET activity (IC50 <30 μM) BRD4(1) [2]: Active

SMILES: COc1ccc(Cn2cc(-c3c(C)noc3C)ccc2=O)cc1 [Example 130, 5-(3,5-Dimethylisoxazol-4-yl)-1-(4-methoxybenzyl)pyridin-2(1H)-one]
- IL-6 activity (IC50 <30 μM) (hIL-6 mRNA): Active
- FRET activity (IC50 <30 μM) BRD2(2) [1]: Active
- FRET activity (IC50 <30 μM) BRD4(1) [2]: Active

SMILES: COc1ccc(Cn2cc(-c3c(C)noc3C)ccc2=O)cc1OC [Example 131, 1-(3,4-Dimethoxybenzyl)-5-(3,5-dimethylisoxazol-4-yl)pyridin-2(1H)-one]
- IL-6 activity (IC50 <30 μM) (hIL-6 mRNA): Active
- FRET activity (IC50 <30 μM) BRD2(2) [1]: Active
- FRET activity (IC50 <30 μM) BRD4(1) [2]: Active

SMILES: Cc1noc(C)c1-c1ccc(=O)n(Cc2ccc(F)cc2F)c1 [Example 138, 1-(2,4-Difluorobenzyl)-5-(3,5-dimethylisoxazol-4-yl)pyridin-2(1H)-one]
- IL-6 activity (IC50 <30 μM) (hIL-6 mRNA): Active
- FRET activity (IC50 <30 μM) BRD2(2) [1]: Active
- FRET activity (IC50 <30 μM) BRD4(1) [2]: Active

SMILES: Cc1noc(C)c1-c1ccc(=O)n(Cc2ccc(Cl)cc2F)c1 [Example 139, 1-(4-Chloro-2-fluorobenzyl)-5-(3,5-dimethylisoxazol-4-yl)pyridin-2(1H)-one]
- IL-6 activity (IC50 <30 μM) (hIL-6 mRNA): Active
- FRET activity (IC50 <30 μM) BRD2(2) [1]: Active
- FRET activity (IC50 <30 μM) BRD4(1) [2]: Active

SMILES: Cc1noc(C)c1-c1ccc(=O)n(Cc2ccc(Cl)c(F)c2)c1 [Example 141, 1-(4-Chloro-3-fluorobenzyl)-5-(3,5-dimethylisoxazol-4-yl)pyridin-2(1H)-one]
- IL-6 activity (IC50 <30 μM) (hIL-6 mRNA): Active
- FRET activity (IC50 <30 μM) BRD2(2) [1]: Active
- FRET activity (IC50 <30 μM) BRD4(1) [2]: Active

SMILES: Cc1noc(C)c1-c1cc(Nc2cccnn2)c(=O)n(Cc2ccccc2)c1 [Example 221, 1-benzyl-5-(3,5-dimethylisoxazol-4-yl)-3-(pyridazin-3-ylamino)pyridin-2(1H)-one]
- IL-6 activity (IC50 <30 μM) (hIL-6 mRNA): Not Active
- FRET activity (IC50 <30 μM) BRD4(1) [2]: Active

SMILES: Cc1cccc(Cn2cc(-c3c(C)noc3C)cc(N)c2=O)n1 [Example 244, 3-amino-5-(3,5-dimethylisoxazol-4-yl)-1-((6-methylpyridin-2-yl)methyl)pyridin-2(1H)-one]
- IL-6 activity (IC50 <30 μM) (hIL-6 mRNA): Active
- FRET activity (IC50 <30 μM) BRD4(1) [2]: Active

SMILES: Cc1cncc(Nc2cc(-c3c(C)noc3C)cn(Cc3ccccc3)c2=O)c1 [Example 246, 1-benzyl-5-(3,5-dimethylisoxazol-4-yl)-3-((5-methylpyridin-3-yl)amino)pyridin-2(1H)-one]
- FRET activity (IC50 <30 μM) BRD4(1) [2]: Active
- Cell Proliferation activity (IC50 <30 μM) [3]: Active

SMILES: Cc1ccc(Cn2cc(-c3c(C)noc3C)cc(N)c2=O)cn1 [Example 258, 3-amino-5-(3,5-dimethylisoxazol-4-yl)-1-((6-methylpyridin-3-yl)methyl)pyridin-2(1H)-one]
- IL-6 activity (IC50 <30 μM) (hIL-6 mRNA): Active
- FRET activity (IC50 <30 μM) BRD4(1) [2]: Active
